{"source": "patent US6204067A", "about": "“Methods of identifying modulators of the estrogen receptor” (Board of Trustees Operating Michigan State University, priority 1999, dated 2001)", "method": "The lumenal pH (pHL) of liposomes was assayed with pyranine, a fluorescent dye with a pKa~7.3 and a λex =405 nm in its acid form (-3 charge) and a λex =455 nm in its basic form (-4 charge). To prepare pyranine loaded liposomes, lipids (2 mg POPC, 1 mg cholesterol) supplied in chloroform suspension were dried in a round bottom flask under argon for 2 hours. The lipids were then resuspended in acidic or alkaline liposome buffer (300 mM KCl, 20 mM MES, 20 mM MOPS, 20 mM Tricine titrated with KOH to either pH 6.2 or pH 8.1) containing 0.5 mM pyranine. The suspension was incubated at room temperature overnight, then freeze-thawed 6×. Unilamellar liposomies were prepared by extrusion 3× through 2 stacked 100 nm Nucleopore (Corning/Costar Scientific, Acton, Mass.) polycarbonate filters in an Avestin (Vancouver, BC) extruder at 600 PSI.\nThe pyranine fluorescence was calibrated as a function of pH by diluting the liposomes with pH 6.2 into a weakly buffered solution of identical pH (300 mM KCl, 1 mM MES, 1 mM MOPS, 1 mM Tricine, pH 6.2), 1 μM nigericin to allow rapid equilibration with external pH and 5 mM DPX to quench external pyranine. The ratio of the fluorescence emission at λem =510 nm was monitored with dual excitation wavelengths of λex =405 nm and λex =455 nm. Sequential aliquots of 0.1 mM glycylglycine, pH 8.4 were added to increase pH (See FIG. 5). The fluorescence was measured after each addition and the pH was measured using a pH meter. […] The cahiration curve for the liposomes of lumenal pH 8.1 was generated identically except sequential aliquots of 0.1 mM K-MES pH 5.0 were added for titration and the curve was generated between pH 8.1 and pH 6.4.\nTo measure the rate of pH dissipation of liposomes with lumenal pH=6.2, the liposomes were diluted in weakly buffered solution of identical pH as described above, but with no nigericin. […] The external pH was shifted to pH 7.3 by addition of 5 mM glycylglycine pH 8.4 and the fluorescence ratio monitored. After 10 minutes, 1 μM nigericin was added to dissipate the remaining pH gradient. The pHL was calculated using the equation pH=x*log(λex =405 nm/[…])+c, were x and c are constants from the least square fit of the titration curve. To measure the rate of pH dissipation of liposomes with pHL =8.1, the identical procedure was followed except 5 mM K-MES pH 5.0 was added to shift the external pH to 6.9.\nLiposomes were loaded with pyranine, a hydrophilic, non-permeable fluorescent pH indicator to assay proton permeability. […] Two steps were taken to ensure that only pHL was measured and to permit the discrimination between dissipation of pH gradient and the lysis or dye leakage from liposomes.", "note": "Entries after “also recorded” stand apart in the source; their conditions may differ."}
{"smiles": "CC/C(=C(\\c1ccccc1)c1ccc(OCCN(C)C)cc1)c1ccccc1", "note": "[tamoxifen]", "values": [{"measurement": "effect of addition on pHL without pre-existing pH gradient", "setting": "pHL 6.2 = external pH, tamoxifen 2 μM, 8 μM, NH4Cl 5 mM", "result": "alkalinization of liposomes, followed by more rapid pH equilibration"}, {"measurement": "effect on pH equilibration with chloride included", "setting": "pHL 8.1, 300 mM K-glutamate plus 90 mM KCl, external pH shifted to 6.9", "result": "more rapid pH equilibration"}, {"measurement": "effect on dissipation of pH in the absence of chloride", "setting": "pHL 8.1, 300 mM K-glutamate, external pH shifted to 6.9", "result": "no effect on the dissipation of pH"}, {"measurement": "rate of pH gradient dissipation, alkaline lumen", "setting": "pHL 8.1, external pH shifted to 6.9, tamoxifen 0.5-8 μM, NH4Cl 5 mM, FCCP 1 μM, valinomycin 1 μM", "result": "dissipated more quickly with increasing concentrations; also recorded: faster than saturating concentration of FCCP"}]}
